The values below come from PubChem BioAssay (NCI).

What all share (experiment): NCI anticancer screen, dose series, 48 h
For experiment [1], the system named is A498 renal.
The test system of experiment [2] is NCI-H226 lung.
For experiment [3], the system named is NCI-H522 lung.
Experiment [4] relates to SK-MEL-2 melanoma.
Experiment [5] relates to TK-10 renal.
The subject of experiment [6] is K-562 leukemia.
For experiment [7], the system named is HCT-116 colon.
Experiment [8] has as its system SF-268 CNS.
Experiment [9] deals with NCI-H460 lung.
The test system of experiment [10] is HL-60(TB) leukemia.

Structures are written as SMILES.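 A five-concentration, 48-hour dose response in 96-well plates underlies each endpoint, interpolated linearly between surrounding concentrations. Abbreviation: GI50, concentration required for 50% inhibition of growth. TGI marks complete inhibition of growth.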

In the case of `Nc1ccc(-c2cc(C(=O)Nc3nccs3)[nH]c(=S)n2)cc1`, the TGI in experiment [1], in experiment [2], in [3], in experiment [4], in experiment [5] and in experiment [6] was over 100 µM each time. Besides, the TGI in [7] and in experiment [8] was over 100 µM in each case.
In the case of `C[P+](C)(C)C`, the TGI in [2], in [4], in experiment [5], in [9], in experiment [6] and in experiment [7] was over 100 µM each time. Moreover, the TGI in experiment [8] and in experiment [10] was over 100 µM each time.
Turning to `CCCCC(C)/C=C/C(=O)C1=C(O)/C(=C/C(=O)O)OC1=O` (stereo not given), the TGI in experiment [1], in [2], in [4], in experiment [5], in experiment [9] and in experiment [6] was over 100 µM each time. Besides, the TGI in experiment [7] and in [10] was over 100 µM each time.
As for `O=C1CC(c2c(-c3ccccc3)[nH]c3ccccc23)C(=O)N1c1ccccc1` (stereo not given), the TGI in experiment [1], in experiment [2], in experiment [4], in experiment [5], in experiment [9] and in experiment [6] was over 100 µM in each case. For the same compound, the TGI in [7] and in experiment [10] was over 100 µM each time.
With `C/C(=N\NC(=O)C[N+](C)(C)C)c1sc(-c2cccnc2)nc1C`, the TGI in experiment [2], in experiment [3], in experiment [4], in experiment [5], in experiment [9] and in [6] was over 100 µM each time. Besides, the TGI in experiment [7], in experiment [8] and in experiment [10] was over 100 µM in each case.
Turning to `O=C1N2Cc3c4ccc5c3CN3C(=O)N6Cc7c(ccc(c7CN1C6(c1ccccc1)C23c1ccccc1)OCCOCCOc1cc(Br)c(Br)cc1OCCOCCO4)OCCOCCOc1cc(Br)c(Br)cc1OCCOCCO5` (stereo not given), the TGI in experiment [2], in experiment [3], in experiment [4], in experiment [5], in experiment [9] and in experiment [6] was over 100 µM in each case. The TGI in experiment [7] and in experiment [8] was over 100 µM each time.
Consider `CCC1C(C)C=NN1c1nc(N)nc(C(C#N)=Nc2ccc(N(C)C)cc2)n1` (stereo not given), for which the GI50 in experiment [2] is 10.8 µM; in [3] it was over 50 µM; in experiment [4] it was 32.2 µM; in [5] it was 10.6 µM; in experiment [9] it was 11.1 µM; in experiment [6], 2.73 µM. Besides, the GI50 is 16.5 µM in [7], 10.6 µM in experiment [8] and 7.62 µM in [10]. The TGI in experiment [2] was 28.8 µM; in experiment [3] it was over 50 µM; in experiment [4] it was over 50 µM; in experiment [5], 18.9 µM; in experiment [9] it was 24.5 µM; in [6], over 50 µM. Further, the TGI in [7] was over 50 µM; in experiment [8] it was 23.2 µM; in experiment [10], over 50 µM.
Take `Nc1ccccc1C#C/C=C\C#CC#C/C=C\C#Cc1ccccc1N`: the GI50 in [1] is 5.36 µM; in experiment [2], 3.56 µM; in experiment [3], 3.93 µM; in experiment [4], 14.2 µM; in experiment [5], 15.3 µM; in [9], 8.32 µM. In addition, the GI50 was 0.781 µM in experiment [6], 3.84 µM in [7] and 5.93 µM in experiment [8]. The TGI in experiment [1] is 20.6 µM; in experiment [2] it was 27.2 µM; in experiment [3] it was 16 µM; in [4] it was 65.3 µM; in [5], over 100 µM; in experiment [9], 25.6 µM. In addition, the TGI was over 100 µM in experiment [6], 15.9 µM in [7] and 26.2 µM in experiment [8].
Take `CCc1cccc(C(C)C)c1NC(=O)CCl`: the TGI in experiment [2], in experiment [3], in experiment [4], in experiment [5], in experiment [6] and in [7] was over 100 µM each time. The TGI in experiment [8] was over 100 µM; in [10], 70.8 µM.
For `COC(=O)CCC(=O)N1C/C(=C\c2ccccc2)C(=O)/C(=C/c2ccccc2)C1`, the TGI in [1] was 4.45 µM; in experiment [2], 13.5 µM; in experiment [5] it was 13.2 µM; in experiment [9], 10.8 µM; in experiment [6], over 100 µM; in experiment [7] it was 1.42 µM. The TGI in experiment [8] worked out at 5.89 µM.
With `Cc1cc(C(=O)/C=C/c2ccc[nH]2)ccc1-n1ccc(C(F)(F)F)n1`, the GI50 in [2] is 30 µM; in experiment [3], 3.68 µM; in [4], over 100 µM; in [5] it was 27.5 µM; in [9], 24.3 µM; in experiment [6], 3.43 µM. The GI50 in [7] is 8.63 µM; in [8] it was 3.37 µM; in experiment [10], 0.457 µM. Moreover, the TGI is over 100 µM in experiment [2]; 65.6 µM in [3]; over 100 µM in experiment [4]; over 100 µM in experiment [5]; over 100 µM in experiment [9]; over 100 µM in [6]. Besides, the TGI in experiment [7], in experiment [8] and in [10] was over 100 µM in each case.
Take `CC1(C)CCCC2(C)C3C(O)CC2(C)C(O)C31` (stereo not given): the TGI in experiment [1], in [2], in experiment [3], in [4], in experiment [5] and in [9] was over 100 µM in each case. For the same compound, the TGI in [6], in experiment [7] and in experiment [8] was over 100 µM each time.
For the compound `CCOC(=O)C(=O)Nc1cc(Cl)c(Cl)cc1Cl`, the TGI in experiment [2], in experiment [3], in [4], in experiment [5], in experiment [9] and in experiment [6] was over 100 µM in each case. Further, the TGI in experiment [7] and in [8] was over 100 µM in each case.
